Results reported in article PMC11653702, “Targeting the SPC25/RIOK1/MYH9 Axis to Overcome Tumor Stemness and Platinum Resistance in Epithelial Ovarian Cancer” (Advanced Science, 2024).
Peptide text beside a SMILES is read from it.

Columns and labels:
SPC25 = target: T1, SPC25 (Homo sapiens, UniProt Q9HBM1); test: Surface plasmon resonance, CBP1 binding to SPC25; details: SPR, BIAcore T200, CBP1 binding to SPC25; read-out: dissociation constant Kd
T1 sequence (Q9HBM1 1-224): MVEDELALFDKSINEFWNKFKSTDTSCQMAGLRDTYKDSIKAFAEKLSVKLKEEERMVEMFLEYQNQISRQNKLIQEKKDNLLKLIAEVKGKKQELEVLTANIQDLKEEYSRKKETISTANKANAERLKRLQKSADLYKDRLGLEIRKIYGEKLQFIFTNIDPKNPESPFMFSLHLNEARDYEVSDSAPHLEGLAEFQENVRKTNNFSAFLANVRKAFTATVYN
Method: Analysis of Surface Plasmon Resonance: Analysis of Surface Plasmon Resonance Binding kinetics between SPC25 and the indicated peptide-CBP1 were measured by Surface Plasmon Resonance (SPR) using a BIAcore T200 instrument (GE Healthcare, CA, USA). The dissociation constant (Kd) was calculated according to the BIA-evaluation software.

[1] = Survival of non-tumor-bearing mice on CBP1; format: in vivo, BALB/c-Nude mice; parameters: key to Survival status: 0: Alive; 1: Dead; details: for Survival status / Survival time (Days after CDDP treatment): CBP1 10mg/kg; for Survival status: day 42; for Survival time (Days after CDDP treatment): alive at this day
[2] = system: EOC organoids (HGS-202, HGS-203, HGS-107); test: Cell Counting Kit-8 assay in EOC patient-derived organoids; format: cell-based; details: EOC organoids HGS-202, HGS-203, HGS-107, compared with controls
[3] = Serum urea, creatinine, alanine aminotransferase, aspartate aminotransferase (hepatorenal function); details: for ALT / AST / CRE (creatinine) / UREA: mice under CBP1 treatment, after 6 weeks
From the text: Subsequently, we established a BALB/c‐Nude mouse model of EOC by intraperitoneally injecting OVCAR8 cells stably expressing a luciferase gene, as described previously. On reaching a bioluminescence signal of 2 × 10^7 p/s/cm^2/sr, mice were divided into 4 treatment groups: Vehicle, CBP1, CDDP, and CDDP/CBP1 (n = 7 per group; Figure 5I).
H) Serum urea, creatinine, alanine aminotransferase, and aspartate aminotransferase levels in normal and CBP1-treated nude mice assessed to evaluate hepatorenal function. […] Error bars represent the means ± SD of independent experiments; ns denotes not significant. In (A) and (H), two-sided Student’s t test was used.

[4] = 10 mg/kg, i.p., once every 2 days, 6 weeks, BALB/c-Nude mice without tumors

CC[C@H](C)[C@H](NC(=O)[C@H](Cc1ccc(O)cc1)NC(=O)[C@H](C)NC(=O)CNC(=O)CNC(=O)[C@H](Cc1c[nH]c2ccccc12)NC(=O)[C@@H]1CCCN1C(=O)[C@H](CO)NC(=O)[C@@H](NC(=O)[C@H](Cc1ccc(O)cc1)NC(=O)[C@H](CC(C)C)NC(=O)[C@@H](N)Cc1c[nH]cn1)C(C)C)C(=O)N1CCC[C@H]1C(=O)N[C@@H](CCCNC(=N)N)C(=O)N[C@H](C(=O)N[C@@H](CC(C)C)C(=O)N[C@@H](CC(N)=O)C(=O)N[C@@H](CCC(=O)O)C(=O)N[C@H](C(=O)N[C@@H](CCCCN)C(=O)N[C@@H](CC(N)=O)C(=O)N[C@@H](Cc1ccc(O)cc1)C(=O)N[C@@H](CCC(=O)O)C(=O)N[C@@H](CCCNC(=N)N)C(=O)O)C(C)C)[C@@H](C)O [CBP1] (H-HLYVSPWGGAYIPRTLNEVKNYER-OH)
Kd (SPC25): 13.3 ± 2.88 µM | effect on survival of normal mice [1, 4]: did not cause considerable hepatorenal toxicity or affect survival in the mice | Survival status ([1]; animal 1): 0 | Survival status ([1]; animal 2): 0 | Survival status ([1]; animal 3): 0 | Survival status ([1]; animal 4): 0 | Survival status ([1]; animal 5): 0 | Survival status ([1]; animal 6): 0 | Survival status ([1]; animal 7): 0 | Survival time (Days after CDDP treatment) ([1]; animal 1): ≥ 42 days | Survival time (Days after CDDP treatment) ([1]; animal 2): ≥ 42 days | Survival time (Days after CDDP treatment) ([1]; animal 3): ≥ 42 days | Survival time (Days after CDDP treatment) ([1]; animal 4): ≥ 42 days | Survival time (Days after CDDP treatment) ([1]; animal 5): ≥ 42 days | Survival time (Days after CDDP treatment) ([1]; animal 6): ≥ 42 days | Survival time (Days after CDDP treatment) ([1]; animal 7): ≥ 42 days | CDDP cytotoxicity in presence of CBP1 [2]: markedly enhanced CDDP cytotoxicity | hepatorenal toxicity [3, 4]: did not cause considerable hepatorenal toxicity | ALT ([3]; animal #1): 61.601 U/L | AST ([3]; animal #1): 95.798 U/L | CRE (creatinine) ([3]; animal #1): 0.334 mg/dL | UREA ([3]; animal #1): 19.36 mg/dL | ALT ([3]; animal #2): 48.846 U/L | AST ([3]; animal #2): 169.051 U/L | CRE (creatinine) ([3]; animal #2): 0.381 mg/dL | UREA ([3]; animal #2): 24.41 mg/dL | ALT ([3]; animal #3): 37.083 U/L | AST ([3]; animal #3): 149.075 U/L | CRE (creatinine) ([3]; animal #3): 0.362 mg/dL | UREA ([3]; animal #3): 17.46 mg/dL | ALT ([3]; animal #4): 56.136 U/L | AST ([3]; animal #4): 97.689 U/L | CRE (creatinine) ([3]; animal #4): 0.247 mg/dL | UREA ([3]; animal #4): 15.11 mg/dL | ALT ([3]; animal #5): 58.209 U/L | AST ([3]; animal #5): 124.231 U/L | CRE (creatinine) ([3]; animal #5): 0.314 mg/dL | UREA ([3]; animal #5): 16.87 mg/dL | ALT ([3]; animal #6): 57.394 U/L | AST ([3]; animal #6): 120.889 U/L | CRE (creatinine) ([3]; animal #6): 0.253 mg/dL | UREA ([3]; animal #6): 21.13 mg/dL | ALT ([3]; animal #7): 54.623 U/L | AST ([3]; animal #7): 133.397 U/L | CRE (creatinine) ([3]; animal #7): 0.252 mg/dL | UREA ([3]; animal #7): 15.13 mg/dL
